Structures can show the parent of a compound that is named as a salt.
How the values were obtained:
[1] = system: anti-CD3-stimulated human T cells; experiment: Cytokine and chemokine production in anti-human CD3-stimulated human T cells (Luminex); assay type: cell-based; conditions: 48 hours
Description: (§1) The test compounds were prepared as stock solutions of 4 mM in DMSO. T cells were isolated from buffy coat by negative selection using the RosetteSep® T Cell Enrichment Cocktail according to manufacturer's procedures. All 96-well plates were pre-coated with 3 μg/mL anti-human CD3 antibody in 100 μL 1× PBS for 4 hours at 37° C. The plates were washed 3 times with RPMI-1640 Complete Media prior to the T cell assay. The T cells were then plated in anti-CD3-pre-coated plates at a density of 2.5×10^5 cells/well in 180 μL RPMI-1640 Complete Media. […] The final DMSO concentrations were 0.25%. The plates were incubated for 48 hours at 37° C., 5% CO2. After 48 hours, the supernatants were harvested and tested by a multiplex cytometric bead array (CBA) assay for the following cytokines/chemokines: IL-2, IL-3, IL-5, IL-10, IL-13, IL-15, IL-17A, GM-CSF, G-CSF, IFN-γ, TNF-α, and RANTES. The CBA plates were analyzed on the Luminex IS100 instrument. Data from each donor was graphed using GraphPad Prism 5.0 software and expressed as mean pg/mL±SEM and % of DMSO control±SEM.

IL-5 = IL-5 production in anti-human CD3-stimulated human T cells; assay type: cell-based; conditions: 48 hours
Description: as §1

IL-10 [2] = experiment: IL-10 production in anti-human CD3-stimulated human T cells; assay type: cell-based
Description: as §1

IL-8 = IL-8 production in LPS-stimulated hPBMC (Luminex); assay type: cell-based; conditions: Homo sapiens; LPS 1 ng/ml, 18 hours
Description: (§2) 50 ml human buffy coat was aliquoted 25 ml each into two 50 ml conical tubes and 25 ml sterile HBSS was added to each conical tube. The tubes were gently mixed by inverting. Fifteen ml of room temperature Ficoll-Paque Plus (GE Healthcare (location); cat #17-1440-02) was aliquoted into four 50 ml conical tubes. Then 25 ml of the Buffy coat/HBSS mixture was layered gently and slowly on top of the Ficoll. The samples were centrifuged at 450 rpm for 35 minutes. The top layered containing plasma was pipetted off and discarded. The interface containing mononuclear cells was transferred into two 50 ml conical tubes. Both conical tubes were filled to total volume of 50 ml with HBSS and centrifuged at 1200 rpm for 10 minutes. The cells were washed again in HBSS and spun at 1000 rpm for 10 minutes. Cell pellet was resuspended with 20 ml RPMI complete medium (RPMI/5% human sera/1× pen/strep/glut) and counted.
(§3) One hundred μl (2×10^6/ml) of hPBMCs were added to each well of a 96 well flat-bottom plate (final cell count=2×10^5/well) and incubated at 37° C. for 1 hour. […]
(§4) Supernatant samples were analyzed for cytokines in multiplex format according to the manufacturer's instructions (Millipore, Billerica, Mass. 01821) using a Luminex IS100 instrument. […]

IL-1β = IL-1β production in LPS-stimulated hPBMC (Luminex); assay type: cell-based; conditions: Homo sapiens; LPS 1 ng/ml, 18 hours
Description: as §2, §3, §4

MIP-1β = MIP-1β production in LPS-stimulated hPBMC (Luminex); assay type: cell-based; conditions: Homo sapiens; LPS 1 ng/ml, 18 hours
Description: as §2, §3, §4

TNF-α = TNF-α production in LPS-stimulated hPBMC (Luminex); assay type: cell-based; conditions: Homo sapiens; LPS 1 ng/ml, 18 hours
Description: as §2, §3, §4

NK cell IFN-γ production = experiment: NK IgG-induced interferon-gamma (IFN-gamma) assay; assay type: cell-based, human
Description: NK cells from healthy donors were isolated from buffy coat blood by negative selection using the RosetteSep NK cell enrichment cocktail (Stem Cell Technologies, Vancouver, BC) prior to Ficoll-Hypaque (Fisher Scientific Co LLC, PA) density gradient centrifugation following the manufacturers' instructions. CD56+ NK cells were isolated to ˜85% purity, as determined by flow cytometry (BD Biosciences, CA). Ninety-six-well flat-bottom plates were coated with 100 μg/mL of human IgG (Sigma) overnight at 4° C. The next day, unbound IgG was washed away with cold 1× PBS. NK cells were then plated in the IgG-coated 96-well plates at 2×10^5 cells per well in 180 μL RPMI-1640 Media and 10 ng/mL of rhIL-2 (R & D Systems, MN) was added. […] Final DMSO concentrations were 0.25%. After 48 hours, the supernatants were harvested and analyzed by ELISA for IFN-γ production. […] The data are presented in two ways, (1) as the absolute amount if IFN-γ produced (pg/mL±SEM) and (2) as the percentage of the amount of IFN-γ produced in the presence of 1 μM pomalidomide.

[3] = system: Rituximab coated lymphoma cells (WSU-DLCL2, Farage, DoHH2, Riva, Raji); experiment: ADCC assay: NK cell-mediated ADCC (LDH release); assay type: cell-based, human; conditions: 0.01 to 10 μM, 48 hours pretreatment, effector:target 10:1
Excerpt: NK cells from healthy donors were isolated from buffy coat blood by negative selection using the RosetteSep NK cell enrichment cocktail (Stem Cell Technologies, Vancouver, BC) prior to Ficoll-Hypaque (Fisher Scientific Co LLC, PA) density gradient centrifugation following the manufacturers' instructions. CD56+ NK cells were isolated to ˜85% purity, as determined by flow cytometry (BD Biosciences, CA). […] Various lymphoma cell lines (GCB-DLBCL: WSU-DLCL2 and Farage; Follicular lymphoma:DoHH2; ABC-DLBCL: Riva; Burkitt's lymphoma [BL]: Raji) were treated with 5 μg/mL rituximab for 30 minutes at 37° C. Unbound rituximab was washed off, target cells (5×103/100 μL/well) were added to the pretreated effector cells (NK cells) at a 10:1 ratio, and the two were co-incubated for 4 hours at 37° C. […] Using an aliquot of supernatant (50 μL), NK cell cytotoxicity against tumor cells was analyzed using a standard lactate dehydrogenease (LDH) release assay to measure ADCC (CytoTox 96 Non-Radioactive Cytoxicity Assay, Promega, WI). Spontaneous release by target cells alone was <15% of the maximum release, as determined with target cells lysed in 1% Triton X-100. […] The percentage of specific lysis was calculated according to the formula: Percentage specific lysis=100×(experimental−effector spontaneous−target spontaneous)/(target maximum−target spontaneous).

IgG production = IgG production in B cell differentiation assay (ELISA); assay type: cell-based; conditions: Homo sapiens
Description: (§5) Step 1—B cell Activation—day 0 through day 4: Prepare fresh B cell cocktail by adding 50 μg/mL of human transferrin to B cell media. (Iscoves +10% PFBS, 1% P/S, and 5 μg/mL human insulin). Filter required volume of media needed for experiment through a […] filter. Add B cell differentiation cocktail (final concentration): recombinant human IL-2 (20 U/mL), IL-10 (50 ng/mL), IL-15 (10 ng/mL), CD40 Ligand/TNFSFS/histidine-tagged (50 ng/mL), polyHistidine mouse IgG1 antibody (5 μg/mL), and ODN 2006-Human TLR9 ligand (10 μg/mL) to cells. Five milliliters (1×10^5/ml) of CD19+ B cell were added to each well of a 6 well flat-bottom plate (final cell count=5×10^5/well). Five μL (1×)±compound/DMSO was added to each test well (0.1% final DMSO) and incubated at 37° C. for 4 days.
(§6) Step 2—Plasmablast Generation—day 4 through day 7: Cells were harvested and counted on the cell counter; an aliquot was removed for flow analysis, the remaining cells were washed with PBS. […]
(§7) On day 7, cells were harvested and counted on the cell counter. […]
(§8) Supernatants (from section 8.4.3) were harvested and analyzed by ELISA for IgG and IgM production (ZeptoMetrix Corp. Buffalo, N.Y.).
(§9) The data was graphed using GraphPad Prism 5.0 software. […] The results for test compounds in the Ig assays were expressed as the percentage inhibition relative to control DMSO values.

IgM production = IgM production in B cell differentiation assay (ELISA); assay type: cell-based; conditions: Homo sapiens
Description: as §5, §6, §7, §8, §9

[4] = system: bleomycin induced dermal fibrosis; experiment: Bleomycin induced dermal fibrosis mouse model, prevention of fibrosis; assay type: in vivo, DBA/2 mice; conditions: 30 mg/kg, PO, QD, p<0.0001
Description: Bleomycin was obtained from the pharmacy of the University of Erlangen-Nuremberg and freshly prepared once a week. Skin fibrosis was induced in 6-week-old DBA mice by local intracutaneous injections of 100 μl of bleomycin dissolved in 0.9% NaCl, at a concentration of 0.5 mg/ml, every other day in defined areas of 1.5 cm2 on the upper back.
In this model, a localized dermal fibrosis is induced by intradermal injections with bleomycin every other day for 3 weeks. […] To evaluate potential effects on prevention of fibrosis, treatment was initiated simultaneously with the first bleomycin injection. […]
Dermal thickness was determined by staining with hematoxylin and eosin and activated fibroblasts by using immunohistochemistry for alpha smooth mucle actin (α-SMA). […] Dermal thickness was analyzed with a Nikon Eclipse 80i microscope (Nikon, Badhoevedorp, The Netherlands) by measuring the maximal distance between the epidermal-dermal junction and the dermal-subcutaneous fat junction at 4 different skin sections in each mouse. […]
For quantification of myofibroblasts, skin sections were deparaffinized and incubated with 5% bovine serum albumin for 60 minutes. Cells positive for α-SMA were detected by incubation with monoclonal anti-α-SMA antibodies (clone 1A4; Sigma-Aldrich, Steinheim, Germany) for 2 hours at room temperature followed by incubation with 3% hydrogen peroxide for 10 minutes. […]

[5] = system: bleomycin induced dermal fibrosis; experiment: Modified bleomycin induced dermal fibrosis mouse model, regression of established fibrosis; assay type: in vivo, DBA/2 mice; conditions: 30 mg/kg, PO, QD, p<0.0001
Description: Skin fibrosis was induced in 6-week-old DBA mice by local intracutaneous injections of 100 μl of bleomycin dissolved in 0.9% NaCl, at a concentration of 0.5 mg/ml, every other day in defined areas of 1.5 cm2 on the upper back.
Dermal thickness was determined by staining with hematoxylin and eosin and activated fibroblasts by using immunohistochemistry for alpha smooth mucle actin (α-SMA). […] Skin sections were stained with hematoxylin/eosin for better visualization of the tissue structure. Dermal thickness was analyzed with a Nikon Eclipse 80i microscope (Nikon, Badhoevedorp, The Netherlands) by measuring the maximal distance between the epidermal-dermal junction and the dermal-subcutaneous fat junction at 4 different skin sections in each mouse. The evaluation was performed by 2 independent examiners.

IL-10 [6] = experiment: IL-10 production in LPS-stimulated hPBMC (Luminex); assay type: cell-based, human; conditions: at 10 μM; used as upper constraint for EC50s
Description: as §2, §3, §4

[7] = system: bleomycin induced dermal fibrosis; conditions: previously shown, Akhmetshina et al. 2009; cited from earlier work

With `Cc1nc2cccc(N)c2c(=O)n1C1CCC(=O)NC1=O` (stereo not drawn) [test compound, 3-(5-amino-2-methyl-4-oxoquinazolin-3(4H)-yl)piperidine-2,6-dione] the “IL-2, IL-3, IL-5, IL-10, IL-13, GM-CSF, IFN-γ, RANTES, and TNF-α production in stimulated human T cells” value [1] was “enhanced”, the “increase of IL-5 production” value (IL-5; 0.01 μM) was 3 fold and the “increase of IL-5 production” value (IL-5; 0.1 μM) was 4 fold. For the same molecule, the IL-10 production (IL-10 [2]; at higher concentrations) was “inhibited enhancement of IL-10 production”, the IL-10 production (IL-10 [2]; at lower concentrations) was “enhanced IL-10 production” and the IC50 (IL-8) was over 10000 nM. The IC50 (IL-1β) was 54 nM, the IC50 (MIP-1β) was over 10000 nM and the IC50 (TNF-α) was 34 nM. For the same molecule, the EC50 (NK cell IFN-γ production; Homo sapiens, immobilized IgG and rhIL-2, 48 hours, maximal = IFN-γ produced with 1 μM pomalidomide, read-out: EC50, half-maximal IFN-γ production) was 1.5 nM, the “NK cell IFN-γ production” value (NK cell IFN-γ production; immobilized IgG and IL-2 stimulation) was “enhanced” and the “NK cell-mediated ADCC” value [3] was “induced dose-dependent NK cell-mediated ADCC in all cell lines”. It also gave an IC50 (IgG production; Normal (n = 3)) of 61 nM, an IC50 (IgG production; SLE (n = 3)) of 46 nM and an IC50 (IgM production; Normal (n = 3)) of 23 nM. The IC50 (IgM production; SLE (n = 3)) was 30 nM, the “prevention of dermal thickening” value ([4]; three weeks) was “approximately 22±0.49%” and the “reduction of number of α-SMA+ myofibroblasts in lesional skin” value [4] was 30±0.23%. For the same molecule, the “reduction of bleomycin induced dermal thickening” value [5] was 22±0.28%.

For `Nc1cccc2c1C(=O)N(C1CCC(=O)NC1=O)C2=O` (stereo not drawn) [pomalidomide], the “average IL-10 enhancement” value (IL-10 [6]) was 246.9%.

In the case of `Cc1ccc(NC(=O)c2ccc(CN3CCN(C)CC3)cc2)cc1Nc1nccc(-c2cccnc2)n1` [Imatinib mesylate], the “anti-fibrotic effects in bleomycin induced dermal fibrosis” value [7] is given as “potent anti-fibrotic effects”.

— patent US20170165266A1 (Celgene Corporation, priority 2010, published 2017)
